Patent US20050009845A1, “Thienopyrimidine compounds as protein tyrosine kinase inhibitors” (priority 2001, published 2005)
Where a name gives a salt, the structure may show the parent alone.

Legend:
BT474 tumor cell line = test: Methylene blue growth inhibition assay, BT474; type: cell-based; conditions: Homo sapiens, BT-474, 72 h; BT474, 3 days, IC50 classes
Experimental: Human breast (BT474), head and neck (HN5) and gastric tumor (N87) cell lines and human foreskin Fibroblasts (HFF) were cultured in low glucose DMEM (Life Technologies 12320-032) containing 10% fetal bovine serum (FBS) at 37° C. in a humidified 10% CO2, 90% air incubator. The SV40 transformed human mammary epithelial cell line HB4a was transfected with either human H-ras cDNA (HB4a r4.2) or the human c-ErbB2 cDNA (HB4a c5.2). The HB4a clones were cultured in RPMI containing 10% FBS, insulin (5 μg/ml), hydrocortisone (5 μg/ml), supplemented with the selection agent hygromycin B (50μg/ml). Cells were harvested using trypsin/EDTA, counted using a haemocytometer, and plated in […] of the appropriate media, at the following densities, in a 96-well tissue culture plate (Falcon 3075): BT474 10,000 cells/well, HN5 3,000 cells/well, N87 10,000 cells/well, HB4a c5.2 3,000 cells/well, HB4a r4.2 3,000 cells/well, HFF 2500 cells/well. The next day, compounds were diluted in DMEM containing […] gentamicin, at twice the final required concentration, from 10 mM stock solutions in DMSO. […] of these dilutions were added to the […] of media currently on the cell plates. Medium containing 0.6% DMSO was added to control wells. Compounds diluted in DMEM were added to all cell lines, including the HB4a r4.2 and HB4a c5.2 cell lines. The final concentration of DMSO in all wells was 0.3%. Cells were incubated at 37° C., 10% CO2 for 3 days. Medium was removed by aspiration. Cell biomass was estimated by staining cells with 100 μl per well methylene blue (Sigma M9140, 0.5% in 50:50 ethanol:water), and incubation at room temperature for at least 30 minutes. Stain was removed, and the plates rinsed under a gentle stream of water, and air-dried. To release stain from the cells 100 μl of solubilization solution was added (1% N-lauroyl sarcosine, Sodium salt, Sigma L5125, in PBS), and plates were shaken gently for about 30 minutes. Optical density at 620 nm was measured on a microplate reader. Percent inhibition of cell growth was calculated relative to vehicle treated control wells. Concentration of compound that inhibits 50% of cell growth (IC50) was interpolated using nonlinear regression (Levenberg-Marquardt) and the equation, y=Vmax*(1−(x/(K+x)))+Y2, where “K” was equal to the IC50.
Table I illustrates the inhibitory activity of compounds of the present invention as IC50 values in μM against and the BT474 tumor cell line. Using HFF as a representative, human, normal cell line, values for cytotoxicity are supplied as IC50 values in micromolar.

ErbB-2 = biological target: T1, ErbB-2 (Homo sapiens, UniProt P04626); test: ErbB-2 substrate phosphorylation enzyme assay (scintillation proximity); type: biochemical; conditions: ErbB-2, pIC50 classes
T1 construct: made in house
Experimental: Compounds of the present invention were tested for EGFR, ErbB-2, and ErbB-4 protein tyrosine kinase inhibitory activity in substrate phosphorylation assays using enzymes purified from a baculovirus expression system. Reagent production and assay methodology were conducted essentially as described (Brignola, P.S., et al, (2002) J. Biol. Chem. v. 277 in press).
The method measures the ability of the isolated enzyme to catalyse the transfer of the γ-phosphate from ATP onto tyrosine residues in a biotinylated synthetic peptide (biotin-Ahx-RAHEEIYHFFFAKKK-amide). Reactions were performed in 96-well polystyrene round-bottom plates in a final volume of 45 μL. Reaction mixtures contained 50 mM MOPS (pH 7.5), 2 mM MnCl2, 10 μM ATP, 0.125 μCi [γ-^33P] ATP per reaction, 2 μM peptide substrate, and I mM dithiothreitol. Reactions were initiated by adding 1 pmol (20 nM) per reaction of the indicated enzyme. The reaction was allowed to proceed for 15 minutes, terminated and quantified using a scintillation proximity assay procedure as described in McDonald, O. B., Antonsson, B., Arkinstal, S., Marshall, C. J., and Wood, E. R. (1999) Analytical Biochemistry, 268, 318-329.
Compounds under analysis were dissolved in Me2SO to 0.5 mM and serially diluted 1 to 3 with Me2SO through eleven columns of a 96 well plate. 1 μL of each concentration was transferred to the corresponding well of the assay plate. This creates a final compound concentration range from 0.00019 to 11.1 μM.
The data for dose responses were plotted as % Control calculated with the data reduction formula 100*(U1−C2)/(C1−C2) versus concentration of compound and fitted to the curve described by: y=((Vmax*x)/(K+x)) where Vmax is the upper asymptote and K is the IC50. Cellular assays: Methylene Blue Growth Inhibition Assay

T1 sequence (P04626 691-1255 limits assumed): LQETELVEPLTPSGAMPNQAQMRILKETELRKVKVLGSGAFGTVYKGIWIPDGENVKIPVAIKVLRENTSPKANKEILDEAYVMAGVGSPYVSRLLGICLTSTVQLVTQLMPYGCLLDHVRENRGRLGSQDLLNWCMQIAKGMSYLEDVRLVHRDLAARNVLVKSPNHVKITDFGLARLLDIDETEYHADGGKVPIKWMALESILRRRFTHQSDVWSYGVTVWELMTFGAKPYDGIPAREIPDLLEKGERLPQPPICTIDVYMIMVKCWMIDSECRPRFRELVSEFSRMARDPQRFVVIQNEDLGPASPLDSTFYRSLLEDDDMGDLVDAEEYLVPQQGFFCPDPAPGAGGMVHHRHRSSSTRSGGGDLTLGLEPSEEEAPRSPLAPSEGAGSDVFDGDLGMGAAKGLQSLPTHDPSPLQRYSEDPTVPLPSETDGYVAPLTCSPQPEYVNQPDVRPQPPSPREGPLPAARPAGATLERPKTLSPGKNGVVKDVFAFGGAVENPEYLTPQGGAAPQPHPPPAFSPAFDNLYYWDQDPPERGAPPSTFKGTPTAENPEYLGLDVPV

Row | IC50 (BT474 tumor cell line) | IC50 (ErbB-2) | melting point | SMILES
1 | < 1500 nM | < 31.6 nM |  | CN1CCN(CC(=O)NCC#Cc2cc3ncnc(Nc4ccc(OCc5cccc(F)c5)c(Cl)c4)c3s2)CC1 [N-{3-[4-({3-Chloro-4-[(3-fluorobenzyl)oxy]phenyl}amino)thieno[3,2-d]pyrimidin-6-yl]prop-2-ynyl}-2-(4-methylpiperazin-1-yl)acetamide]
2 | < 1500 nM | < 31.6 nM |  | CS(=O)(=O)CCNC(=O)NCC#Cc1cc2c(Nc3ccc(OCc4cccc(F)c4)c(Cl)c3)ncnc2s1 [N-{3-[4-({3-chloro-4-[(3-fluorobenzyl)oxy]phenyl}amino)thieno[2,3-d]pyrimidin-6-yl]prop-2-ynyl}-N′-[2-(methylsulfonyl)ethyl]urea]
3 |  |  | 204 °C | Fc1cccc(COc2ccc(Nc3ncnc4sc(C#Cc5nccs5)cc34)cc2Cl)c1 [Example 101, N-{3-chloro-4-[(3-fluorobenzyl)oxy]phenyl}-6-(1,3-thiazol-2-ylethynyl)thieno[2,3-d]pyrimidin-4-amine]
4 |  |  | 242 °C | Fc1cccc(COc2ccc(Nc3ncnc4cc(C#Cc5ccccn5)sc34)cc2Cl)c1 [Example 78, N-{3-chloro-4-[(3-fluorobenzyl)oxy]phenyl}-6-(pyridin-2-yiethynyl)thieno[3,2-d]pyrimidin-4-amine]
5 | 1500 to 5000 nM | 31.6 to 100 nM |  | O=C(CCc1ccc(F)cc1)NCC#Cc1cc2ncnc(Nc3ccc(OCc4cccc(F)c4)c(Cl)c3)c2s1 [N-{3-[4-({3-chloro-4-[(3-fluorobenzyl)oxy]phenyl}amino)thieno[3,2-d]pyrimidin-6-yl]prop-2-ynyl}-3-(4-fluorophenyl)propanamide]
6 | < 1500 nM | < 31.6 nM |  | CN(C)CCNC(=O)NCC#Cc1cc2c(Nc3ccc(OCc4cccc(F)c4)c(Cl)c3)ncnc2s1 [N-{3-[4-({3-chloro-4-[(3-fluorobenzyl)oxy]phenyl}amino)thieno[2,3-d]pyrimidin-6-yl]prop-2-ynyl)N′-[2-(dimethylamino)ethyl]urea]
7 | 1500 to 5000 nM | 31.6 to 100 nM |  | O=C(NCC#Cc1cc2ncnc(Nc3ccc(OCc4cccc(F)c4)c(Cl)c3)c2s1)c1ccc2[nH]ccc2c1 [N-{3-[4-({3-chloro-4-[(3-fluorobenzyl)oxy]phenyl}amino)thieno[3,2-d]pyrimidin-6-yl]prop-2-ynyl}-1H-indole-5-carboxamide]
8 | 1500 to 5000 nM | 31.6 to 100 nM |  | O=C(NCC#Cc1cc2ncnc(Nc3ccc(OCc4cccc(F)c4)c(Cl)c3)c2s1)c1c(Cl)cccc1Cl [2,6-dichloro-N-{3-[4-({3-chloro-4-[(3-fluorobenzyl)oxy]phenyl}amino)thieno[3,2-d]pyrimidin-6-yl]prop-2-ynyl}benzamide]
9 | > 5000 nM | > 100 nM |  | O=C(Cc1ccc(Cl)c(Cl)c1)NCC#Cc1cc2ncnc(Nc3ccc(OCc4cccc(F)c4)c(Cl)c3)c2s1 [N-{3-[4-({3-chloro-4-[(3-fluorobenzyl)oxy]phenyl}amino)thieno[3,2-d]pyrimidin-6-yl]prop-2-ynyl}-2-(3,4-dichlorophenyl)acetamide]
10 | < 1500 nM | < 31.6 nM |  | CS(=O)(=O)CCNCC#Cc1cc2ncnc(Nc3ccc(OCc4cccc(F)c4)c(Cl)c3)c2s1 [N-{3-Chloro-4-[(3-fluorobenzyl)oxy]phenyl}-6-(3-{[2-(methylsulfonyl)ethyl]amino}prop-1-ynyl)thieno[3,2-d]pyrimidin-4-amine hydrochloride]
11 | > 5000 nM | > 100 nM |  | CC(C)CN(CC#Cc1cc2ncnc(Nc3ccc(OCc4cccc(F)c4)c(Cl)c3)c2s1)CC(C)C [N-{3-chloro-4-[(3-fluorobenzyl)oxy]phenyl}-6-[3-(diisobutylamino)prop-1-ynyl]thieno[3,2-d]pyrimidin-4-amine]
12 | 1500 to 5000 nM | 31.6 to 100 nM | 225 °C | Fc1cccc(COc2ccc(Nc3ncnc4sc(C#Cc5ncccn5)cc34)cc2Cl)c1 [N-{3-chloro-4-[(3-fluorobenzyl)oxy]phenyl)-6-(pyrimidin-2-ylethynyl)thieno[2,3-d]pyrimidin-4-amine]
13 |  |  | 180 °C | Fc1cccc(COc2ccc(Nc3ncnc4sc(C#Cc5ccccn5)cc34)cc2Cl)c1 [Example 99, N-{3-chloro-4-[(3-fluorobenzyl)oxy]phenyl}-6-(pyridin-2-ylethynyl)thieno[2,3-d]pyrimidin-4-amine]
14 | 1500 to 5000 nM | 31.6 to 100 nM |  | O=C(NCC#Cc1cc2ncnc(Nc3ccc(OCc4cccc(F)c4)c(Cl)c3)c2s1)c1csc(-c2ccncc2)n1 [N-{3-[4-({3-chloro-4-[(3-fluorobenzyl)oxy]phenyl}amino)thieno[3,2-d]pyrimidin-6-yl]prop-2-ynyl}-2-pyridin-4-yl-1,3-thiazole-4-carboxamide]
15 |  |  | 236 to 240 °C | Fc1cccc(COc2ccc(Nc3ncnc4cc(C#Cc5ncccn5)sc34)cc2Cl)c1 [Example 77, N-{3-chloro-4-[(3-fluorobenzyl)oxy]phenyl}-6-(pyrimidin-2-ylethynyl)thieno[3,2-d]pyrimidin-4-amine]
